The values that follow come from patent US10519152B2, “Compounds and their use in treating cancer” (AstraZeneca AB, priority 2017, dated 2019).

The target of this assay is T1, Estrogen Receptor (ERα) in MCF-7 human ductal carcinoma breast cell line (Homo sapiens, UniProt P03372).
T1 construct: endogenous in cells; host or cells: MCF-7
T1 sequence (P03372 1-595): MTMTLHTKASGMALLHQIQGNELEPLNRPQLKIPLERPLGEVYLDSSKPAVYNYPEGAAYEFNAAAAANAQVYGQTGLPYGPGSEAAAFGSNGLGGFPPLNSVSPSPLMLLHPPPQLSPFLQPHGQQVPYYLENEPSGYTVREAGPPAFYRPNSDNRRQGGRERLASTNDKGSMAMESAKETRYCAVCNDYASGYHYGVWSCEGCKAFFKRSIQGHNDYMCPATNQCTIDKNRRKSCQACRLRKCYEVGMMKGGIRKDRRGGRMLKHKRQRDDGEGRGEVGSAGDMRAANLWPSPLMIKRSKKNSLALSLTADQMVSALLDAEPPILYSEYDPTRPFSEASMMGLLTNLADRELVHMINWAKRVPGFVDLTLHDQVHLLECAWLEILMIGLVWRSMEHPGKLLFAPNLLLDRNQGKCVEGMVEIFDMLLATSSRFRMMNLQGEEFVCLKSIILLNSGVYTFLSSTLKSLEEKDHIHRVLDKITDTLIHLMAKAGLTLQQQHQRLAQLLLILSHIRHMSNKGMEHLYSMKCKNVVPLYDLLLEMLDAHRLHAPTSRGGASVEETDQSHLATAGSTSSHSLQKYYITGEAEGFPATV
Briefly: MCF-7 ER degradation assay (cell based immuno-fluorescence). Particulars: MCF-7 cells; for ER degradation ≥ 90% at 0.3 μM: ER degradation by fulvestrant at 0.3 μM is defined as 100%; for DC50: 18-22 hours incubation, 50% reduction of ERα expression, single experiment or average of two or more, read-out: MCF-7 ER degradation IC50. A digest of the protocol: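 MCF-7 human ductal carcinoma breast cells were seeded at 3.75×10^4 cells per mL (40 μL per well) in 384 well plates with phenol red free DMEM containing 2 mM L-Glutamine and 5% (v/v) Charcoal/Dextran treated foetal calf serum. After overnight culture, compounds were acoustically dispensed, incubated 18-22 hours, then cells were formaldehyde-fixed and immunostained for ERα.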

On to `Cc1ncsc1-c1ccc(CNC(=O)[C@@H]2C[C@@H](O)CN2C(=O)[C@@H](NC(=O)CCCCCCCCOc2cc(F)c([C@@H]3c4[nH]c5ccccc5c4C[C@@H](C)N3CC(C)(C)F)c(F)c2)C(C)(C)C)cc1` [Example 15, (2S,4R)-1-((S)-2-(9-(3,5-Difluoro-4-((1R,3R)-2-(2-fluoro-2-methylpropyl)-3-methyl-2,3,4,9-tetrahydro-1H-pyrido[3,4-b]indol-1-yl)phenoxy)nonanamido)-3,3-dimethylbutanoyl)-4-hydroxy-N-(4-(4-methylthiazol-5-yl)benzyl)pyrrolidine-2-carboxamide], for which the “ER degradation ≥ 90% at 0.3 μM” value is recorded as “•” and the DC50 was found to be 3.9 nM.

Regarding `Cc1ncsc1-c1ccc(CNC(=O)[C@@H]2C[C@@H](O)CN2C(=O)[C@@H](NC(=O)COCCCCOCCOc2cc(F)c([C@@H]3c4[nH]c5ccccc5c4C[C@@H](C)N3CC(C)(C)F)c(F)c2)C(C)(C)C)cc1` [Example 16, (2S,4R)-1-((S)-2-(2-(4-(2-(3,5-Difluoro-4-((1R,3R)-2-(2-fluoro-2-methylpropyl)-3-methyl-2,3,4,9-tetrahydro-1H-pyrido[3,4-b]indol-1-yl)phenoxy)ethoxy)butoxy)acetamido)-3,3-dimethylbutanoyl)-4-hydroxy-N-(4-(4-methylthiazol-5-yl)benzyl)pyrrolidine-2-carboxamide], the “ER degradation ≥ 90% at 0.3 μM” value is listed as “••” and the DC50 worked out at 0.8 nM.

In the case of `Cc1ncsc1-c1ccc(CNC(=O)[C@@H]2C[C@@H](O)CN2C(=O)[C@@H](NC(=O)COCCCCCOc2ccc([C@@H]3c4[nH]c5ccccc5c4C[C@@H](C)N3CC(F)F)nc2)C(C)(C)C)cc1` [Example 17, (2S,4R)-1-((S)-2-(2-((5-((6-((1S,3R)-2-(2,2-Difluoroethyl)-3-methyl-2,3,4,9-tetrahydro-1H-pyrido[3,4-b]indol-1-yl)pyridin-3-yl)oxy)pentyl)oxy)acetamido)-3,3-dimethylbutanoyl)-4-hydroxy-N-(4-(4-methylthiazol-5-yl)benzyl)pyrrolidine-2-carboxamide], the “ER degradation ≥ 90% at 0.3 μM” value is on record as “•” and the DC50 stood at 41 nM.

Take `Cc1ncsc1-c1ccc(CNC(=O)[C@@H]2C[C@@H](O)CN2C(=O)[C@@H](NC(=O)COCCCCCOc2cc(F)c([C@@H]3c4[nH]c5ccccc5c4C[C@@H](C)N3CC(C)(C)F)c(F)c2)C(C)(C)C)cc1` [Example 18, (2S,4R)-1-((S)-2-(2-((5-(3,5-Difluoro-4-((1R,3R)-2-(2-fluoro-2-methylpropyl)-3-methyl-2,3,4,9-tetrahydro-1H-pyrido[3,4-b]indol-1-yl)phenoxy)pentyl)oxy)acetamido)-3,3-dimethylbutanoyl)-4-hydroxy-N-(4-(4-methylthiazol-5-yl)benzyl)pyrrolidine-2-carboxamide]: the “ER degradation ≥ 90% at 0.3 μM” value is reported as “•” and the DC50 was 1 nM.

For `Cc1ncsc1-c1ccc(CNC(=O)[C@@H]2C[C@@H](O)CN2C(=O)[C@@H](NC(=O)COc2cccc(COc3cc(F)c([C@@H]4c5[nH]c6ccccc6c5C[C@@H](C)N4CC(C)(C)F)c(F)c3)c2)C(C)(C)C)cc1` [Example 20, (2S,4R)-1-((S)-2-(2-(3-((3,5-difluoro-4-((1R,3R)-2-(2-fluoro-2-methylpropyl)-3-methyl-2,3,4,9-tetrahydro-1H-pyrido[3,4-b]indol-1-yl)phenoxy)methyl)phenoxy)acetamido)-3,3-dimethylbutanoyl)-4-hydroxy-N-(4-(4-methylthiazol-5-yl)benzyl)pyrrolidine-2-carboxamide], the “ER degradation ≥ 90% at 0.3 μM” value is given as “•” and the DC50 is 1.7 nM.

For the molecule `Cc1ncsc1-c1ccc(CNC(=O)[C@@H]2C[C@@H](O)CN2C(=O)[C@@H](NC(=O)COCC/C=C/CCOc2cc(F)c([C@@H]3c4[nH]c5ccccc5c4C[C@@H](C)N3CC(C)(C)F)c(F)c2)C(C)(C)C)cc1` [Example 22, (2S,4R)-1-((S)-2-(2-(((E)-6-(3,5-Difluoro-4-((1R,3R)-2-(2-fluoro-2-methylpropyl)-3-methyl-2,3,4,9-tetrahydro-1H-pyrido[3,4-b]indol-1-yl)phenoxy)hex-3-en-1-yl)oxy)acetamido)-3,3-dimethylbutanoyl)-4-hydroxy-N-(4-(4-methylthiazol-5-yl)benzyl)pyrrolidine-2-carboxamide], the “ER degradation ≥ 90% at 0.3 μM” value was “•” and the DC50 is 3 nM.

Take `Cc1ncsc1-c1ccc(CNC(=O)[C@@H]2C[C@@H](O)CN2C(=O)[C@@H](NC(=O)COCCC(C)(C)CCOc2cc(F)c([C@@H]3c4[nH]c5ccccc5c4C[C@@H](C)N3CC(C)(C)F)c(F)c2)C(C)(C)C)cc1` [Example 23, (2S,4R)-1-((S)-2-(2-((5-(3,5-Difluoro-4-((1R,3R)-2-(2-fluoro-2-methylpropyl)-3-methyl-2,3,4,9-tetrahydro-1H-pyrido[3,4-b]indol-1-yl)phenoxy)-3,3-dimethylpentyl)oxy)acetamido)-3,3-dimethylbutanoyl)-4-hydroxy-N-(4-(4-methylthiazol-5-yl)benzyl)pyrrolidine-2-carboxamide]: the “ER degradation ≥ 90% at 0.3 μM” value was “••” and the DC50 worked out at 1 nM.

In the case of `Cc1ncsc1-c1ccc(CNC(=O)[C@@H]2C[C@@H](O)CN2C(=O)[C@@H](NC(=O)COCCCOCCOc2ccc([C@@H]3c4[nH]c5ccccc5c4C[C@@H](C)N3CC(F)F)nc2)C(C)(C)C)cc1` [Example 26, (2S,4R)-1-((S)-2-(2-(3-(2-((6-((1S,3R)-2-(2,2-Difluoroethyl)-3-methyl-2,3,4,9-tetrahydro-1H-pyrido[3,4-b]indol-1-yl)pyridin-3-yl)oxy)ethoxy)propoxy)acetamido)-3,3-dimethylbutanoyl)-4-hydroxy-N-(4-(4-methylthiazol-5-yl)benzyl)pyrrolidine-2-carboxamide], the “ER degradation ≥ 90% at 0.3 μM” value is listed as “•” and the DC50 worked out at 7.5 nM.

Regarding `Cc1ncsc1-c1ccc([C@H](C)NC(=O)[C@@H]2C[C@@H](O)CN2C(=O)[C@@H](NC(=O)COCCCCCOc2cc(F)c([C@@H]3c4[nH]c5ccccc5c4C[C@@H](C)N3CC(C)(C)F)c(F)c2)C(C)(C)C)cc1` [Example 28, (2S,4R)-1-((S)-2-(2-((5-(3,5-Difluoro-4-((1R,3R)-2-(2-fluoro-2-methylpropyl)-3-methyl-2,3,4,9-tetrahydro-1H-pyrido[3,4-b]indol-1-yl)phenoxy)pentyl)oxy)acetamido)-3,3-dimethylbutanoyl)-4-hydroxy-N—((S)-1-(4-(4-methylthiazol-5-yl)phenyl)ethyl)pyrrolidine-2-carboxamide], the “ER degradation ≥ 90% at 0.3 μM” value is on record as “•” and the DC50 was determined as 0.8 nM.

For the molecule `COC(=O)[C@@H](C)CN1[C@H](c2c(F)cc(OCCOCCOCCOCC(=O)N[C@H](C(=O)N3C[C@H](O)C[C@H]3C(=O)NCc3ccc(-c4scnc4C)cc3)C(C)(C)C)cc2F)c2[nH]c3ccccc3c2C[C@H]1C` [Example 29], the “ER degradation ≥ 90% at 0.3 μM” value is “••” and the DC50 was determined as 2.4 nM.

As to `Cc1ncsc1-c1ccc(CNC(=O)[C@@H]2C[C@@H](O)CN2C(=O)[C@@H](NC(=O)CCCCCCCCCCOc2cc(F)c([C@@H]3c4[nH]c5ccccc5c4C[C@@H](C)N3CC(C)(C)F)c(F)c2)C(C)(C)C)cc1` [Example 32, (2S,4R)-1-((S)-2-(11-(3,5-Difluoro-4-((1R,3R)-2-(2-fluoro-2-methylpropyl)-3-methyl-2,3,4,9-tetrahydro-1H-pyrido[3,4-b]indol-1-yl)phenoxy)undecanamido)-3,3-dimethylbutanoyl)-4-hydroxy-N-(4-(4-methylthiazol-5-yl)benzyl)pyrrolidine-2-carboxamide], the “ER degradation ≥ 90% at 0.3 μM” value is on record as “•” and the DC50 stood at 13 nM.

Take `Cc1ncsc1-c1ccc(CNC(=O)[C@@H]2C[C@@H](OC(=O)[C@@H]3CCCN3)CN2C(=O)[C@@H](NC(=O)CCCCCCCCCCOc2cc(F)c([C@@H]3c4[nH]c5ccccc5c4C[C@@H](C)N3CC(C)(C)F)c(F)c2)C(C)(C)C)cc1` [Example 33, (3R,5S)-1-((S)-2-(11-(3,5-Difluoro-4-((1R,3R)-2-(2-fluoro-2-methylpropyl)-3-methyl-2,3,4,9-tetrahydro-1H-pyrido[3,4-b]indol-1-yl)phenoxy)undecanamido)-3,3-dimethylbutanoyl)-5-((4-(4-methylthiazol-5-yl)benzyl)carbamoyl)pyrrolidin-3-yl L-prolinate]: the “ER degradation ≥ 90% at 0.3 μM” value is “••” and the DC50 came out at 29 nM.

For `CC(=O)O[C@@H]1C[C@@H](C(=O)NCc2ccc(-c3scnc3C)cc2)N(C(=O)[C@@H](NC(=O)COCCOCCOCCOc2cc(F)c([C@@H]3c4[nH]c5ccccc5c4C[C@@H](C)N3CC(C)(C)F)c(F)c2)C(C)(C)C)C1` [Example 34, (3R,5S)-1-((S)-2-(tert-Butyl)-14-(3,5-difluoro-4-((1R,3R)-2-(2-fluoro-2-methylpropyl)-3-methyl-2,3,4,9-tetrahydro-1H-pyrido[3,4-b]indol-1-yl)phenoxy)-4-oxo-6,9,12-trioxa-3-azatetradecanoyl)-5-((4-(4-methylthiazol-5-yl)benzyl)carbamoyl)pyrrolidin-3-yl Acetate], the “ER degradation ≥ 90% at 0.3 μM” value is on record as “•” and the DC50 stood at 1 nM.
